{"source": "patent US20190167569A1", "about": "“ENHANCED HERBAL EXTRACTION AND TRANSDERMAL DELIVERY” (priority 2016, published 2019)", "key": {"[1]": {"assay": "Diffusion of carvacrol in thyme essential oil through Franz diffusion cells that mimic human skin (UV-VIS, 272 nm)", "type": "in vitro ADME", "description": "The diffusion rates of carvacrol in thyme (Tymus vulgaris) essential oil through diffusion cells that mimic human skin were calculated and analyzed using UV-VIS spectrophotometry to measure carvacrol content. Franz diffusion cells from Permegeaer, USA, with 47 mm, 200 nm inert polycarbonate membrane filters, were used with 5 ml extract solution samples. […] The amount of carvacrol that passed through the filter was determined by absorbance graphics on a UV spectrophotometer (Agilent 8453). A standard calibration curve was determined for carvacrol and the absorbances were measured at 272 nm to determine the % concentrations released.\nThe diffusion rates of carvacrol in thyme (Tymus vulgaris) essential oil (0.05 ml of thyme essential oil) dispersed in 1 ml of soapwort extract solution through diffusion cells that mimic human skin were calculated and analyzed using UV-VIS spectrophotometry to measure carvacrol content. Franz diffusion cells from Permegear, USA, with 47 mm, 200 nm inert polycarbonate membrane filters, were used with 5 ml extract solution samples. The speed of diffusion of different thyme extracts were calculated at 1, 3, 5, 7, 10, 20, 40 minutes (and up to 1 day of duration) at a rotational speed of 50 rpm to mimic a dermal application. The amount of carvacrol that passed through the filter was determined by absorbance graphics on a UV spectrophotometer (Agilent 8453). A standard calibration curve was determined for carvacrol and the absorbances were measured at 272 nm to determine the % concentrations released.\nThe diffusion rates of carvacrol in thyme (Tymus vulgaris) essential oil (0.05 ml of thyme essential oil dispersed in 1 ml of licorice extract solution) through diffusion cells that mimic human skin were calculated and analyzed using UV-VIS spectrophotometry to measure carvacrol content. Franz diffusion cells from Permegeaer, USA, with 47 mm, 200 nm inert polycarbonate membrane filters, were used with 5 ml extract solution samples. The speed of diffusion of different thyme extracts were calculated at 1, 2, 3, 4, 7, 10, 20, 30, 40 minutes (and up to 1 day of duration) at a rotational speed of 50 rpm to mimic a dermal application. The amount of carvacrol that passed through the filter was determined by absorbance graphics on a UV spectrophotometer (Agilent 8453). A standard calibration curve was determined for carvacrol and the absorbances were measured at 272 nm to determine the % concentrations released."}, "[2]": {"type": "in vitro ADME", "description": "(§1) The diffusion rates of different rosemary extract solutions through diffusion cells that mimic human skin were calculated and analyzed using UV-VIS spectrophotometry to measure rosmarinic acid content. Franz diffusion cells from Permegear, USA, with 47 mm, 200 nm inert polycarbonate membrane filters, were used with 5 ml extract solution samples. The speed of diffusion of different rosemary extracts were calculated at 1, 2, 3, 4, 10, 20, 30, 60, 120, 360 minutes (and up to 1 day of duration) at a rotational speed of 50 rpm to mimic a dermal application. The amount of rosmarinic acid that passed through the filter was determined by absorbance graphics on a UV spectrophotometer (Agilent 8453). A standard calibration curve was determined for rosmarinic acid and the absorbances were measured at 323 nm to determine the % concentrations released.\nFor a reference or baseline sample, a decoction of rosemary in water alone was prepared at a 1:5 ratio.\nA soapwort decoction (an extraction medium with a saponin content) was prepared in water at a 1:5 ratio. A consequent decoction of rosemary (i.e., a rosemary extract solution) was prepared in the mentioned soapwort decoction at a 1:5 ratio. […] Thus, the transdermal delivery of rosmarinic acid using the method of the present invention is much faster than classical water decoctions predominantly used in modern dermal or cosmetic formulations.\nas §1, with “5, 40” for “4, 10, 20, 30, 60, 120, 360”\nA soapwort decoction (an extraction medium with a saponin content) was prepared in water at a 1:5 ratio. A decoction of rosemary (i.e., a rosemary extract solution) was prepared in 5×distilled water. The mentioned soapwort decoction and the water decoction of the rosemary leaves were then mixed at a 1:1 ratio. The following diffusion values were measured for this mixture: 14% at minute 1, 49.4% at minute 3, and 100% at minute 5.\nThe diffusion rates of rosemarinic acid in rosemary essential oil through diffusion cells that mimic human skin were calculated and analyzed using UV-VIS spectrophotometry to measure rosmarinic acid content. Franz diffusion cells from Permegear, USA, with 47 mm, 200 nm inert polycarbonate membrane filters, were used with 5 ml extract solution samples. The speed of diffusion of different rosemary extracts were calculated at 1, 2, 3, 4, 7, 10, 20, 40 minutes (and up to 1 day of duration) at a rotational speed of 50 rpm to mimic a dermal application. The amount of rosmarinic acid that passed through the filter was determined by absorbance graphics on a UV spectrophotometer (Agilent 8453). A standard calibration curve was determined for rosmarinic acid and the absorbances were measured at 323 nm to determine the % concentrations released."}, "[3]": {"type": "physicochemical", "description": "100% of the carvacrol present in soapwort extract solution was released at the end of 40 minutes whereas about 90% of carvacrol present in licorice extract solution at the end of 40 minutes. When the solubilities were compared, it was observed that 0.5% of thyme oil was clearly dissolved in soapwort water extract and maximum 2% of thyme oil could be homogenously dispersed in soapwort. The maximum amount of thyme oil dissolved in licorice was 0.5%. Absorbance results clearly indicate that soapwort water extract has higher potential to dissolve and diffuse carvacrol of Thyme essential oil than does licorice."}}, "note": "Like-named read-outs stand apart in the source and are kept apart here.", "data": [{"compound": "Cc1ccc(C(C)C)cc1O", "note": "[carvacrol]", "values": [{"measurement": "diffusion", "setting": "[1]; 0.05 ml thyme essential oil in 1 ml licorice extract solution, after 24 hours", "result": 100, "unit": "%"}, {"measurement": "diffusion value", "setting": "[1]; 0.05 ml thyme essential oil in 1 ml licorice extract solution, minute 1", "result": 0, "unit": "%"}, {"measurement": "diffusion value", "setting": "[1]; 0.05 ml thyme essential oil in 1 ml licorice extract solution, minute 2", "result": 3.98, "unit": "%"}, {"measurement": "diffusion value", "setting": "[1]; 0.05 ml thyme essential oil in 1 ml licorice extract solution, minute 3", "result": 14.41, "unit": "%"}, {"measurement": "diffusion value", "setting": "[1]; 0.05 ml thyme essential oil in 1 ml licorice extract solution, minute 4", "result": 32.98, "unit": "%"}, {"measurement": "diffusion value", "setting": "[1]; 0.05 ml thyme essential oil in 1 ml licorice extract solution, minute 7", "result": 42.59, "unit": "%"}, {"measurement": "diffusion value", "setting": "[1]; 0.05 ml thyme essential oil in 1 ml licorice extract solution, minute 10", "result": 56.35, "unit": "%"}, {"measurement": "diffusion value", "setting": "[1]; 0.05 ml thyme essential oil in 1 ml licorice extract solution, minute 20", "result": 67.61, "unit": "%"}, {"measurement": "diffusion value", "setting": "[1]; 0.05 ml thyme essential oil in 1 ml licorice extract solution, minute 30", "result": 77.73, "unit": "%"}, {"measurement": "diffusion value", "setting": "[1]; 0.05 ml thyme essential oil in 1 ml soapwort extract solution, minute 1", "result": 8.20, "unit": "%"}, {"measurement": "diffusion value", "setting": "[1]; 0.05 ml thyme essential oil in 1 ml soapwort extract solution, minute 3", "result": 26.43, "unit": "%"}, {"measurement": "diffusion value", "setting": "[1]; 0.05 ml thyme essential oil in 1 ml soapwort extract solution, minute 5", "result": 44.75, "unit": "%"}, {"measurement": "diffusion value", "setting": "[1]; 0.05 ml thyme essential oil in 1 ml soapwort extract solution, minute 7", "result": 66.29, "unit": "%"}, {"measurement": "diffusion value", "setting": "[1]; 0.05 ml thyme essential oil in 1 ml soapwort extract solution, minute 10", "result": 77.15, "unit": "%"}, {"measurement": "diffusion value", "setting": "[1]; 0.05 ml thyme essential oil in 1 ml soapwort extract solution, minute 20", "result": 91.39, "unit": "%"}, {"measurement": "diffusion value", "setting": "[1]; 0.05 ml thyme essential oil in 1 ml soapwort extract solution, minute 40", "result": 100, "unit": "%"}, {"measurement": "transdermal delivery (in words)", "setting": "[1]; thyme essential oil alone", "result": "negligible"}, {"measurement": "carvacrol released", "setting": "[1]; thyme essential oil alone, end of 40 minutes", "result": 0, "unit": "%"}, {"measurement": "absorbance values", "setting": "[1]; thyme essential oil alone, end of 48 hours", "result": "minimal"}]}, {"compound": "O=C(/C=C/c1ccc(O)c(O)c1)O[C@H](Cc1ccc(O)c(O)c1)C(=O)O", "note": "[Rosmarinic Acid, rosmarinic acid]", "values": [{"measurement": "absorbance values", "setting": "[2]", "result": "minimal"}, {"measurement": "fraction of the control sample diffusion time", "setting": "[2]", "result": "1/30"}, {"measurement": "penetration rate relative to control sample (only water decoction of rosemary)", "setting": "[2]", "result": "approximately 30 ×"}, {"measurement": "transdermal delivery (in words)", "setting": "[2]", "result": "negligible"}, {"measurement": "rosemarinic acid released", "setting": "[2]; 40 min", "result": 0, "unit": "%"}, {"measurement": "rosmarinic acid content passed through the membrane", "setting": "[2]; 150 min", "result": 100, "unit": "%"}]}, {"compound": "thyme oil", "values": [{"measurement": "maximum amount homogenously dispersed in soapwort", "setting": "[3]", "result": 2, "unit": "%"}]}]}
